Several values for one entry are separate records, joined by “and”; a condition that tells them apart may be missing. Equal entries are not always repeated.
Test system: rivaroxaban rabbit model
Assay: reversal of anticoagulation in a rivaroxaban rabbit model (claw cut)
Type: in vivo, New Zealand White rabbits
Experimental: In doing so, anesthetized New Zealand White rabbits were treated with the factor Xa inhibitor rivaroxaban to achieve anticoagulation. The increased tendency to bleed associated with anticoagulation was determined by cutting the claws. Upon intravenous administration of prethrombin-1, the blood loss was measured again after the claws had been cut.

## O=C(NC[C@H]1CN(c2ccc(N3CCOCC3=O)cc2)C(=O)O1)c1ccc(Cl)s1 [rivaroxaban]
Rivaroxaban 7 μg/kg body weight
  Blood loss after rivaroxaban: 22.3 mg
Rivaroxaban 14 μg/kg body weight
  Blood loss after rivaroxaban: 11.3 mg
Rivaroxaban 35 μg/kg body weight
  Blood loss after rivaroxaban: 30.4 mg
Rivaroxaban 70 μg/kg body weight, individual rabbits
  Blood loss after rivaroxaban: 165.0 mg and 98.7 mg and 20.8 mg and 51.8 mg and 77.4 mg and 108.5 mg and 51.2 mg

Source: patent publication US20260007727A1, “DRUG THAT PROMOTES HEMOSTASIS” (BIOMEDIZINISCHE FORSCHUNG & BIO-PRODUKTE GMBH, priority 2022, published 2026)
